Patent US10689377B2 (Mirati Therapeutics, Inc., priority 2017, dated 2020)

Molecular target: KRas G12C (Homo sapiens, UniProt P01116, G12C)
Assay: Cellular inhibition of KRas G12C measured by Phospho-ERK in NCI-H358 cells
Assay type: cell-based
Details: pERK(Thr202/Tyr204) normalized with GAPDH, NCI-H358 cells, 3 hours; read-out: IC50
How it was run: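 Readout is pERK(Thr202/Tyr204) immunofluorescence normalized to GAPDH, expressed as percent of DMSO control and fitted with a 4-parameter curve for IC50. Attached NCI-H358 cells received compound for 3 hours in 0.5% DMSO, followed by fixation and methanol permeabilization.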

KRas G12C, sequence (P01116 1-188 isoform P01116-2 G12C): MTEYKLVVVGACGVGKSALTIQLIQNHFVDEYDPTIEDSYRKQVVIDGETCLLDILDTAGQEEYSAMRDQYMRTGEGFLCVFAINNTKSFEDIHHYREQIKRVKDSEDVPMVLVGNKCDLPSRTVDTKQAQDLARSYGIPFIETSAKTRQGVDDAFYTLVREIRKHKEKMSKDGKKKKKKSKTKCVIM

Row | IC50 [nM] | SMILES
1 | 0.1 to 1000 | Cc1cccc2cccc(N3CCc4c(nc(OC[C@@H]5CCCN5C)nc4N4CCN(C(=O)/C=C/CN5CCOCC5)[C@@H](CC#N)C4)C3)c12 [Example 460, 2-[(2S)-4-[7-(8-methyl-1-naphthyl)-2-[[(2S)-1-methylpyrrolidin-2-yl]methoxy]-6,8-dihydro-5H-pyrido[3,4-d]pyrimidin-4-yl]-1-[(E)-4-morpholinobut-2-enoyl]piperazin-2-yl]acetonitrile]
2 | 0.1 to 1000 | C=CC(=O)N1CCN(c2nc(OC[C@@H]3CCCN3C)nc3c2CCN(c2cccc4cccc(C)c24)C3)C[C@H]1CC#N [Example 461, 2-[(2R)-4-[7-(8-methyl-1-naphthyl)-2-[[(2S)-1-methylpyrrolidin-2-yl]methoxy]-6,8-dihydro-5H-pyrido[3,4-d]pyrimidin-4-yl]-1-prop-2-enoyl-piperazin-2-yl]acetonitrile]
3 | 0.1 to 1000 | Cc1cccc2cccc(N3CCc4c(nc(OCCC(=O)N(C)C)nc4N4CCN(C(=O)/C=C/CN(C)C)[C@@H](CC#N)C4)C3)c12 [Example 463, (S,E)-3-((4-(3-(cyanomethyl)-4-(4-(dimethylamino)but-2-enoyl)piperazin-1-yl)-7-(8-methylnaphthalen-1-yl)-5,6,7,8-tetrahydropyrido[3,4-d]pyrimidin-2-yl)oxy)-N,N-dimethylpropanamide]
4 | 0.1 to 1000 | C=CC(=O)N1CCN(c2nc(OC[C@@H]3CCCN3C)nc3c2CCN(c2cccc4cccc(Br)c24)C3)C[C@@H]1CC#N [Example 464, 2-((S)-1-acryloyl-4-(7-(8-bromonaphthalen-1-yl)-2-(((S)-1-methylpyrrolidin-2-yl)methoxy)-5,6,7,8-tetrahydropyrido[3,4-d]pyrimidin-4-yl)piperazin-2-yl)acetonitrile]
5 | > 1000 | C=CC(=O)N1CCN(c2nc(OC[C@@H]3CCCN3C)nc3c2CCN(c2cccc4ccccc24)C3)[C@@H](C#N)C1 [Example 465, (R)-4-acryloyl-1-(2-(((S)-1-methylpyrrolidin-2-yl)methoxy)-7-(naphthalen-1-yl)-5,6,7,8-tetrahydropyrido[3,4-d]pyrimidin-4-yl)piperazine-2-carbonitrile]
6 | 0.1 to 1000 | C=C(Cl)C(=O)N1CCN(c2nc(OC[C@@H]3CCCN3C)nc3c2CCN(c2cccc(C)c2C)C3)C[C@@H]1CC#N [Example 473, 2-[(2S)-1-(2-chloroprop-2-enoyl)-4-[7-(2,3-dimethylphenyl)-2-[[(2S)-1-methylpyrrolidin-2-yl]methoxy]-6,8-dihydro-5H-pyrido[3,4-d]pyrimidin-4-yl]piperazin-2-yl]acetonitrile]
7 | 0.1 to 1000 | Cc1cccc(N2CCc3c(nc(OC[C@@H]4CCCN4C)nc3N3CCN(C(=O)/C=C/C(F)(F)F)[C@@H](CC#N)C3)C2)c1C [Example 486, 2-((S)-4-(7-(2,3-dimethylphenyl)-2-(((S)-1-methylpyrrolidin-2-yl)methoxy)-5,6,7,8-tetrahydropyrido[3,4-d]pyrimidin-4-yl)-1-((E)-4,4,4-trifluorobut-2-enoyl)piperazin-2-yl)acetonitrile]
8 | 0.1 to 1000 | Cc1cccc2cccc(N3CCc4c(nc(OC[C@@H]5CCCN5C)nc4N4CCN(C(=O)/C=C/c5ccccn5)[C@@H](CC#N)C4)C3)c12 [Example 493, 2-((S)-4-(7-(8-methylnaphthalen-1-yl)-2-(((S)-1-methylpyrrolidin-2-yl)methoxy)-5,6,7,8-tetrahydropyrido[3,4-d]pyrimidin-4-yl)-1-((E)-3-(pyridin-2-yl)acryloyl)piperazin-2-yl)acetonitrile]
9 | 0.1 to 1000 | Cc1cccc2cccc(N3CCc4c(nc(OC[C@@H]5CCCN5C)nc4N4CCN(C(=O)C5=CC(=O)CC5)[C@@H](CC#N)C4)C3)c12 [Example 497, 2-((S)-4-(7-(8-methylnaphthalen-1-yl)-2-(((S)-1-methylpyrrolidin-2-yl)methoxy)-5,6,7,8-tetrahydropyrido[3,4-d]pyrimidin-4-yl)-1-(3-oxocyclopent-1-ene-1-carbonyl)piperazin-2-yl)acetonitrile]
10 | 0.1 to 1000 | Cc1cccc2cccc(N3CCc4c(nc(OC[C@@H]5CCCN5C)nc4N4CCN(C(=O)/C=C/C(=O)N(C)C)[C@@H](CC#N)C4)C3)c12 [Example 499, (E)-4-((S)-2-(cyanomethyl)-4-(7-(8-methylnaphthalen-1-yl)-2-(((S)-1-methylpyrrolidin-2-yl)methoxy)-5,6,7,8-tetrahydropyrido[3,4-d]pyrimidin-4-yl)piperazin-1-yl)-N,N-dimethyl-4-oxobut-2-enamide]
11 | 0.1 to 1000 | Cc1cccc2cccc(N3CCc4c(nc(OC[C@@H]5CCCN5C)nc4N4CCN(C(=O)/C=C/C(N)=O)[C@@H](CC#N)C4)C3)c12 [Example 500, (E)-4-((S)-2-(cyanomethyl)-4-(7-(8-methylnaphthalen-1-yl)-2-(((S)-1-methylpyrrolidin-2-yl)methoxy)-5,6,7,8-tetrahydropyrido[3,4-d]pyrimidin-4-yl)piperazin-1-yl)-4-oxobut-2-enamide]
12 | > 1000 | Cc1cccc(N2CCc3c(nc(OC[C@@H]4CCCN4C)nc3N3CCN(C(=O)/C=C\Cl)[C@@H](CC#N)C3)C2)c1C [Example 505, 2-((S)-1-((Z)-3-chloroacryloyl)-4-(7-(2,3-dimethylphenyl)-2-(((S)-1-methylpyrrolidin-2-yl)methoxy)-5,6,7,8-tetrahydropyrido[3,4-d]pyrimidin-4-yl)piperazin-2-yl)acetonitrile]

The remaining lines, values behind:

Row | SMILES | IC50 [nM]
13 | C=C(F)C(=O)N1CCN(c2nc(OC[C@@H]3CCCN3C)nc3c2CCN(c2cccc(C)c2C)C3)C[C@@H]1CC#N [Example 472, 2-[(2S)-4-[7-(2,3-dimethylphenyl)-2-[[(2S)-1-methylpyrrolidin-2-yl]methoxy]-6,8-dihydro-5H-pyrido[3,4-d]pyrimidin-4-yl]-1-(2-fluoroprop-2-enoyl)piperazin-2-yl]acetonitrile] | 0.1 to 1000
14 | CN1CCC[C@H]1COc1nc2c(c(N3CCN(C(=O)C#CCO)[C@@H](CC#N)C3)n1)CCN(c1cccc3ccccc13)C2 [Example 474, 2-((S)-1-(4-hydroxybut-2-ynoyl)-4-(2-(((S)-1-methylpyrrolidin-2-yl)methoxy)-7-(naphthalen-1-yl)-5,6,7,8-tetrahydropyrido[3,4-d]pyrimidin-4-yl)piperazin-2-yl)acetonitrile] | 0.1 to 1000
15 | Cc1cccc(N2CCc3c(nc(OC[C@@H]4CCCN4C)nc3N3CCN(C(=O)/C=C/CN4CCC(F)C4)[C@@H](CC#N)C3)C2)c1C (stereo partly drawn) [Example 476, 2-[(2S)-4-[7-(2,3-dimethylphenyl)-2-[[(2S)-1-methylpyrrolidin-2-yl]methoxy]-6,8-dihydro-5H-pyrido[3,4-d]pyrimidin-4-yl]-1-[(E)-4-(3-fluoropyrrolidin-1-yl)but-2-enoyl]piperazin-2-yl]acetonitrile] | 0.1 to 1000
16 | CN1CCC[C@H]1COc1nc2c(c(N3CCN(C(=O)C#CCO)[C@@H](CC#N)C3)n1)CCN(c1cccc3cccc(Cl)c13)C2 [Example 483, 2-[(2S)-4-[7-(8-chloro-1-naphthyl)-2-[[(2S)-1-methylpyrrolidin-2-yl]methoxy]-6,8-dihydro-5H-pyrido[3,4-d]pyrimidin-4-yl]-1-(4-hydroxybut-2-ynoyl)piperazin-2-yl]acetonitrile] | 0.1 to 1000
17 | C=C(C(=O)N1CCN(c2nc(OC[C@@H]3CCCN3C)nc3c2CCN(c2cccc(C)c2C)C3)C[C@@H]1CC#N)C(F)(F)F [Example 487, 2-((S)-4-(7-(2,3-dimethylphenyl)-2-(((S)-1-methylpyrrolidin-2-yl)methoxy)-5,6,7,8-tetrahydropyrido[3,4-d]pyrimidin-4-yl)-1-(2-(trifluoromethyl)acryloyl)piperazin-2-yl)acetonitrile] | 0.1 to 1000
18 | C=C(CO)C(=O)N1CCN(c2nc(OC[C@@H]3CCCN3C)nc3c2CCN(c2cccc(C)c2C)C3)C[C@@H]1CC#N [Example 488, 2-((S)-4-(7-(2,3-dimethylphenyl)-2-(((S)-1-methylpyrrolidin-2-yl)methoxy)-5,6,7,8-tetrahydropyrido[3,4-d]pyrimidin-4-yl)-1-(2-(hydroxymethyl)acryloyl)piperazin-2-yl)acetonitrile] | > 1000
19 | COC/C=C/C(=O)N1CCN(c2nc(OC[C@@H]3CCCN3C)nc3c2CCN(c2cccc(C)c2C)C3)C[C@@H]1CC#N [Example 489, 2-((S)-4-(7-(2,3-dimethylphenyl)-2-(((S)-1-methylpyrrolidin-2-yl)methoxy)-5,6,7,8-tetrahydropyrido[3,4-d]pyrimidin-4-yl)-1-((E)-4-methoxybut-2-enoyl)piperazin-2-yl)acetonitrile] | 0.1 to 1000
20 | C=C(C(=O)N1CCN(c2nc(OC[C@@H]3CCCN3C)nc3c2CCN(c2cccc4cccc(C)c24)C3)C[C@@H]1CC#N)C(F)(F)F [Example 492, 2-((S)-4-(7-(8-methylnaphthalen-1-yl)-2-(((S)-1-methylpyrrolidin-2-yl)methoxy)-5,6,7,8-tetrahydropyrido[3,4-d]pyrimidin-4-yl)-1-(2-(trifluoromethyl)acryloyl)piperazin-2-yl)acetonitrile] | 0.1 to 1000
21 | Cc1cccc2cccc(N3CCc4c(nc(OC[C@@H]5CCCN5C)nc4N4CCN(C(=O)/C=C/c5cnn(C)c5)[C@@H](CC#N)C4)C3)c12 [Example 494, 2-((S)-1-((E)-3-(1-methyl-1H-pyrazol-4-yl)acryloyl)-4-(7-(8-methylnaphthalen-1-yl)-2-(((S)-1-methylpyrrolidin-2-yl)methoxy)-5,6,7,8-tetrahydropyrido[3,4-d]pyrimidin-4-yl)piperazin-2-yl)acetonitrile] | > 1000
22 | CN(C)C/C=C(/F)C(=O)N1CCN(c2nc(OC[C@@H]3CCCN3C)nc3c2CCN(c2cccc4cccc(Cl)c24)C3)C[C@@H]1CC#N [Example 503, 2-[(2S)-4-[7-(8-chloro-1-naphthyl)-2-[[(2S)-1-methylpyrrolidin-2-yl]methoxy]-6,8-dihydro-5H-pyrido[3,4-d]pyrimidin-4-yl]-1-[(E)-4-(dimethylamino)-2-fluoro-but-2-enoyl]piperazin-2-yl]acetonitrile] | > 1000
